Reference: patent publication US9957271B2, “Substituted bicyclic aza-heterocycles and analogues as sirtuin modulators” (GlaxoSmithKline, LLC, priority 2012, dated 2018)

Tests used:
SIRT1 [1] = biological target: T1, SIRT1 (Homo sapiens, UniProt Q96EB6); assay: TAMRA based mass spectrometry assay of SIRT1 activity; assay type: biochemical; conditions: TAMRA assay; for TAMRA EC1.5 (μM): concentration giving 150% activation of SIRT1; for Emax: percent maximum fold activation, read-out: TAMRA % Fold Act
T1 sequence (Q96EB6 1-747): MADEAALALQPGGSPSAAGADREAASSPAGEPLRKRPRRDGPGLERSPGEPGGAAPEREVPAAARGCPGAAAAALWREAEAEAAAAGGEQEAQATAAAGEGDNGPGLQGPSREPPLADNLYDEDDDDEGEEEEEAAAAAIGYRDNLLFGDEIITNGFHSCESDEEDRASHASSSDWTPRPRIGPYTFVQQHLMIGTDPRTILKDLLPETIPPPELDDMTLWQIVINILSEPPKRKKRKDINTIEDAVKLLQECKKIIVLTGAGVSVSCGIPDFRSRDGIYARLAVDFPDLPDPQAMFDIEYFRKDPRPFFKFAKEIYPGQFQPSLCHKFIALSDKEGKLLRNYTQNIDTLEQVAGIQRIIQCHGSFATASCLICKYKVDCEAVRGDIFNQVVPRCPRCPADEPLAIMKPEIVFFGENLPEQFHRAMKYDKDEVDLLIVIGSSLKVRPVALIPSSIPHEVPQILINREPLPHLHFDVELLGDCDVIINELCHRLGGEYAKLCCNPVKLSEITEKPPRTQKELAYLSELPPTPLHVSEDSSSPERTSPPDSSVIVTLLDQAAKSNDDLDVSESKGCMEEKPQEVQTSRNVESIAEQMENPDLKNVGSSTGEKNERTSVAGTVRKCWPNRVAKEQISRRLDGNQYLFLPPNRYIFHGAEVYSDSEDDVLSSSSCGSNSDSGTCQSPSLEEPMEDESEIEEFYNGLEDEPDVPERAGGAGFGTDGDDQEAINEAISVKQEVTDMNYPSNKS
Procedure, shortened: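 Recombinant N-terminal His-tagged human SIRT1 (10 nM, E. coli) incubated 25 min at 25 °C with 0.5 μM 5TMR-labelled p53-derived acetyl-peptide and 120 μM βNAD+ in Tris-acetate pH 8 buffer with DTT and 0.05% BSA, compound at varying concentrations. Stopped with formic acid; deacetylated peptide or OAADPR measured by mass spectrometry relative to DMSO controls.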

SIRT1 [2] = biological target: T1, SIRT1; assay: Trp mass spectrometry assay of SIRT1 activity; assay type: biochemical; conditions: Trp assay; for Trp EC1.5 (μM): concentration giving 150% activation of SIRT1; for Emax: percent maximum fold activation, read-out: Trp % Fold Act
Procedure, shortened: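 His-tagged SIRT1 expressed in E. coli BL21(DE3), 10 nM, incubated 25 min at 25° C. with 0.5 μM Ac-RHKK(Ac)W-NH2 peptide and 120 μM βNAD+ in 50 mM HEPES pH 7.5, […], 1 mM DTT, 0.05% BSA; formic acid stop. OAADPR or deacetylated peptide measured by mass spectrometry; EC1.5 and percent maximum activation versus DMSO control.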

Row | SMILES | TAMRA EC1.5 (μM) (SIRT1 [1]) | Emax (SIRT1 [1]) [%] | Trp EC1.5 (μM) (SIRT1 [2]) | Emax (SIRT1 [2]) [%]
1 | O=C(Nc1cnn2ccc(-c3ccccc3C(F)(F)F)nc12)c1ccccn1 [Compound 249] | A (EC1.5<1 μM) | ≥ 350 | B (EC1.5 1-25 μM) | < 350
2 | O=C(Nc1cnn2ccc(-c3ccccc3C(F)(F)F)nc12)c1ccncc1 [Compound 251] | C (EC1.5>25 μM) | < 350 | C (EC1.5>25 μM) | < 350
3 | O=C(Nc1cnn2ccc(-c3ccccc3C(F)(F)F)nc12)c1ccncn1 [Compound 254] | B (EC1.5 1-25 μM) | ≥ 350 | C (EC1.5>25 μM) | < 350
4 | O=C(Nc1cnn2ccc(-c3ccccc3C(F)(F)F)nc12)c1cccc(CN2CCOCC2)n1 [Compound 255] | A (EC1.5<1 μM) | ≥ 350 | B (EC1.5 1-25 μM) | < 350
5 | Cc1cc(NC(=O)c2cnc3ccc(-c4ccccc4F)nn23)cc(C)n1 [Compound 257] | A (EC1.5<1 μM) | < 350 | B (EC1.5 1-25 μM) | < 350
6 | Cc1cc(NC(=O)c2cnc3ccc(-c4ccccc4Cl)nn23)cc(C)n1 [Compound 260] | A (EC1.5<1 μM) | ≥ 350 | B (EC1.5 1-25 μM) | < 350
7 | COc1cccc(NC(=O)c2cnc3ccc(-c4ccccc4Cl)nn23)n1 [Compound 261] | A (EC1.5<1 μM) | < 350 | A (EC1.5<1 μM) | < 350
8 | O=C(Nc1ccc(OCC(O)CO)nc1)c1cnc2ccc(-c3ccccc3C(F)(F)F)nn12 (centres unmarked) [Compound 263] | B (EC1.5 1-25 μM) | ≥ 350 | B (EC1.5 1-25 μM) | < 350
9 | O=C(Nc1ncccn1)c1cnn2ccc(-c3ccccc3C(F)(F)F)nc12 [Compound 266, N-(pyrimidin-2-yl)-5-(2-(trifluoromethyl)phenyl)pyrazolo[1,5-a]pyrimidine-3-carboxamide] | B (EC1.5 1-25 μM) | ≥ 350 | B (EC1.5 1-25 μM) | < 350
10 | O=C(Nc1cnccn1)c1cnn2ccc(-c3ccccc3C(F)(F)F)nc12 [Compound 267] | A (EC1.5<1 μM) | ≥ 350 | B (EC1.5 1-25 μM) | < 350
11 | O=C(Nc1cccc(CN2CCOCC2)n1)c1cnn2ccc(-c3ccccc3C(F)(F)F)nc12 [Compound 269] | A (EC1.5<1 μM) | ≥ 350 | B (EC1.5 1-25 μM) | ≥ 350
12 | CC(C)c1csc(C(=O)Nc2cnc3ccc(-c4ccccc4C(F)(F)F)nn23)n1 [Compound 272] | A (EC1.5<1 μM) | ≥ 350 | B (EC1.5 1-25 μM) | < 350
13 | Cc1nc(C(=O)Nc2cnc3ccc(-c4ccccc4C(F)(F)F)nn23)cs1 [Compound 273] | A (EC1.5<1 μM) | ≥ 350 | B (EC1.5 1-25 μM) | ≥ 350
14 | Cc1cc(C(=O)Nc2cnc3ccc(-c4ccccc4C(F)(F)F)nn23)nc(C)n1 [Compound 275] | A (EC1.5<1 μM) | ≥ 350 | B (EC1.5 1-25 μM) | < 350
15 | O=C(Nc1cnc2ccc(-c3ccccc3F)nn12)c1ccccn1 [Compound 279] | B (EC1.5 1-25 μM) | < 350 | C (EC1.5>25 μM) | < 350
16 | O=C(Nc1cnc2ccc(-c3ccccc3F)nn12)c1ccncn1 [Compound 281] | C (EC1.5>25 μM) | < 350 | C (EC1.5>25 μM) | < 350
17 | O=C(Nc1ccnc(OCC(O)CO)c1)c1cnc2ccc(-c3ccccc3F)nn12 (centres unmarked) [Compound 284] | C (EC1.5>25 μM) | < 350 | C (EC1.5>25 μM) | < 350
18 | Cc1cc(OCC(O)CO)nc(NC(=O)c2cnc3ccc(-c4ccccc4Cl)nn23)n1 (centres unmarked) [Compound 285] | B (EC1.5 1-25 μM) | < 350 | B (EC1.5 1-25 μM) | < 350
19 | O=C(Nc1cnc2ccc(-c3ccccc3Cl)nn12)c1ccccn1 [Compound 287] | A (EC1.5<1 μM) | ≥ 350 | C (EC1.5>25 μM) | < 350
20 | O=C(Nc1cnc2ccc(-c3ccccc3Cl)nn12)c1ncccn1 [Compound 290] | B (EC1.5 1-25 μM) | ≥ 350 | C (EC1.5>25 μM) | < 350
21 | O=C(Nc1cnc2ccc(-c3ccccc3Cl)nn12)c1cscn1 [Compound 291] | B (EC1.5 1-25 μM) | ≥ 350 | C (EC1.5>25 μM) | < 350
22 | Cc1nc(C(=O)Nc2cnc3ccc(-c4ccccc4Cl)nn23)c(C)s1 [Compound 293] | A (EC1.5<1 μM) | ≥ 350 | C (EC1.5>25 μM) | < 350
23 | O=C(Nc1ccnc(OCC(F)(F)F)c1)c1cnc2ccc(-c3ccccc3C(F)(F)F)nn12 [Compound 296] | B (EC1.5 1-25 μM) | < 350 | B (EC1.5 1-25 μM) | < 350
24 | O=C(Nc1cnc(OCC(O)CO)cn1)c1cnc2ccc(-c3ccccc3C(F)(F)F)nn12 (centres unmarked) [Compound 297] | A (EC1.5<1 μM) | ≥ 350 | B (EC1.5 1-25 μM) | < 350
25 | O=C(Nc1cnc2ccc(-c3ccccc3F)nn12)c1nccs1 [Compound 303] | B (EC1.5 1-25 μM) | < 350 | C (EC1.5>25 μM) | < 350
26 | O=C(Nc1cnc2ccc(-c3ccccc3F)nn12)c1cccc(OCC(O)CO)n1 (centres unmarked) [Compound 305] | B (EC1.5 1-25 μM) | < 350 | A (EC1.5<1 μM) | < 350
27 | O=C(Nc1cnc2ccc(-c3ccccc3Cl)nn12)c1cccc(N2CCC2)n1 [Compound 308] | A (EC1.5<1 μM) | ≥ 350 | A (EC1.5<1 μM) | < 350
28 | O=C(Nc1cnc2ccc(-c3ccccc3Cl)nn12)c1cccc(OCC(O)CO)n1 (centres unmarked) [Compound 309] | A (EC1.5<1 μM) | ≥ 350 | A (EC1.5<1 μM) | < 350
29 | O=C(Nc1nccc(OCC(F)(F)F)n1)c1cnc2ccc(-c3ccccc3C(F)(F)F)nn12 [Compound 311] | A (EC1.5<1 μM) | ≥ 350 | A (EC1.5<1 μM) | ≥ 350
